From ChEMBL document CHEMBL5729264, “Bicyclic compounds” (2022) come the findings set out here.

The nature of the experiment: Dual-Glo Luciferase Assay: The Dual-Glo Luciferase Reagent was prepared by transferring the contents of one bottle of Dual-Glo Luciferase Buffer to one bottle of Dual-Glo Luciferase Substrate to create the Dual-Glo Luciferase Reagent. Mixing was performed by inversion until the substrate was thoroughly dissolved. After mixing, the reagent was aliquoted into 15 ml tubes. In the afternoon (24 hrs post compound treatment), the DMEM+medium in the 384 well plates were aspirated by Microplate Washer.Measuring firefly luciferase activity: 20 ul Dual-Glo Luciferase Reagent was added to the 384-well plates. The plates were protected from light to prevent interference with the assay. The plates were shaken for 1 min followed centrifuging plates at 1000 rpm for 30 seconds. After waiting at least 10 minutes, the firefly luminescence was measured by Envision.Measuring renilla luciferase activity: 20 ul Stop-Glo Reagent was added to the 384-well plates. The plates were shaken for 1 min and then centrifuged at 1000 rpm for 30 seconds. After waiting at least 10 minutes, the renilla luminescence was measured by Envision.Compound IC50 and maximum inhibition on the firefly luciferase and renilla luciferase activities were reported separately.

Each structure is given as a SMILES string.

`CS(=O)(=O)NC(=O)c1ccc2c(Oc3ccc(C(F)(F)F)cc3)cccc2c1`: the IC50 is under 100 nM.
In the case of `CC(C)NC(=O)c1ccc2c(Oc3cccc(Cl)c3)cccc2c1`, the IC50 is under 100 nM.
In the case of `N#CCNC(=O)c1ccc2c(Oc3ccc(C(F)(F)F)cc3)cccc2c1`, the IC50 was under 100 nM.
Molecule `CC(C)NC(=O)c1ccc2c(Oc3ccc(Cl)c(Cl)c3)cccc2c1` returned an IC50 of under 100 nM.
For `CC(C)NC(=O)c1ccc2c(Oc3ccc(C(F)(F)F)cc3)cccc2c1` the value was under 100 nM; for `C#C[C@@H](C)NC(=O)c1ccc2c(Oc3ccc(C(F)(F)F)cc3)cccc2c1`, under 100 nM; for `C[C@H](NC(=O)c1ccc2c(Oc3ccc(C(F)(F)F)cc3)cccc2c1)c1c[nH]cn1`, under 100 nM.
For `C[C@H](NC(=O)c1ccc2c(Oc3ccc(C(F)(F)F)cc3)cccc2c1)c1cccc(N)n1` the value was “in the range around 550 nM”; for `C[C@@H](NC(=O)c1ccc2c(Oc3ccc(C(F)(F)F)cc3)cccc2c1)c1c[nH]cn1`, under 100 nM.
For `C#C[C@H](C)NC(=O)c1ccc2c(Oc3ccc(C(F)(F)F)cc3)cccc2c1` the value was under 100 nM.
In turn, `O=C(NC(CO)c1ccccn1)c1ccc2c(Oc3ccc(C(F)(F)F)cc3)cccc2c1` (stereo not given) gave an IC50 of under 100 nM.
For `C[C@H](NC(=O)c1ccc2c(Oc3ccc(C(F)(F)F)cc3)cccc2c1)C1COC1` the value was under 100 nM; for `C[C@H](CO)NC(=O)c1ccc2c(Oc3ccc(C(F)(F)F)cc3)nccc2c1`, under 100 nM.
The value for `CNCCCNC(=O)c1ccc2c(Oc3ccc(C(F)(F)F)cc3)cccc2c1` was under 100 nM; that for `C[C@@H](NC(=O)c1ccc2c(Oc3ccc(C(F)(F)F)cc3)cccc2c1)c1nnn(C)n1` was “in the range around 550 nM”; that for `C[C@H](NC(=O)c1ccc2c(Oc3ccc(C(F)(F)F)cc3)cccc2c1)c1cccc(N(C)C)n1` was “in the range around 550 nM”.
For `C[C@@H](NC(=O)c1ccc2c(Oc3ccc(C(F)(F)F)cc3)cccc2c1)c1cccnc1N`, the IC50 entry is “in the range around 2000 nM”.
The molecule `CS(=O)(=O)NC(=O)c1ccc2c(Oc3ccc(Cl)c(Cl)c3)cccc2c1` yielded a half-maximal inhibitory concentration (IC50) of under 100 nM.
`C#CCNC(=O)c1ccc2c(Oc3ccc(C(F)(F)F)cc3)cccc2c1` returned an IC50 of under 100 nM.
Molecule `COC[C@@H](C)NC(=O)c1ccc2c(Oc3ccc(C(F)(F)F)cc3)cccc2c1` displayed an IC50 of under 100 nM.
Consider `C[C@H](NC(=O)c1ccc2c(Oc3ccc(C(F)(F)F)cc3)cccc2c1)c1ncc[nH]1`, for which the IC50 result is “in the range around 550 nM”.
As for `C[C@H](CO)NC(=O)c1cc2cccc(Oc3ccc(C(F)(F)F)cc3)c2s1`, the IC50 is under 100 nM.
`C[C@@H](NC(=O)c1ccc2c(Oc3ccc(C(F)(F)F)cc3)cccc2c1)c1cccc(N(C)C)n1`: the concentration for half-maximal inhibition (IC50) was under 100 nM.
Regarding `COc1cc(Oc2ccc(C(F)(F)F)cc2)c2ncc(C(=O)N[C@H](C)c3ccccn3)cc2c1`, the IC50 result is “in the range around 550 nM”.
The molecule `C[C@@H](NC(=O)c1ccc2c(Oc3ccc(C(F)(F)F)cc3)cccc2c1)c1cc(N)ccn1` gave an IC50 of under 100 nM.
Consider `C[C@H](NC(=O)c1ccc2c(Oc3ccc(C(F)(F)F)cc3)cccc2c1)c1nn[nH]n1`, for which the IC50 result was “in the range around 2000 nM”.
With `C[C@H](NC(=O)c1ccc2c(Oc3ccc(C(F)(F)F)cc3)cccc2c1)c1cnccn1`, the IC50 result is “in the range around 550 nM”.
On to `CC(NC(=O)c1ccc2c(Oc3ccc(C(F)(F)F)cc3)cccc2c1)c1cc(Br)ccn1` (stereo not given), for which the IC50 is under 100 nM.
Turning to `O=C(NC1(c2ccccc2)CC1)c1ccc2c(Oc3ccc(C(F)(F)F)cc3)cccc2c1`, the IC50 is under 100 nM.
For `COC[C@H](C)NC(=O)c1ccc2c(Oc3ccc(C(F)(F)F)cc3)cccc2c1`, the IC50 was under 100 nM.
In turn, `COC[C@@H](C)NC(=O)c1cnc2c(Oc3ccc(C(F)(F)F)cc3)cc(OC)cc2c1` returned an IC50 of under 100 nM.
In turn, `C[C@H](NC(=O)c1ccc2c(Oc3ccc(C(F)(F)F)cc3)cccc2c1)C1CCC1` registered an IC50 of under 100 nM.
As to `C[C@H](NC(=O)c1ccc2c(Oc3ccc(C(F)(F)F)cc3)cccc2c1)c1ccccn1`, the IC50 was under 100 nM.
In turn, `CC(C)NC(=O)c1cnc2c(Oc3ccc(C(F)(F)F)cc3)cc(F)c(F)c2c1` returned an IC50 of under 100 nM.
For the molecule `CN(C#N)CCCNC(=O)c1ccc2c(Oc3ccc(C(F)(F)F)cc3)cccc2c1`, the IC50 was under 100 nM.
For `C[C@@H](NC(=O)c1ccc2c(Oc3ccc(C(F)(F)F)cc3)cccc2c1)c1cnccn1`, the concentration for half-maximal inhibition (IC50) was under 100 nM.
With `COC[C@H](C)NC(=O)c1cnc2c(Oc3ccc(C(F)(F)F)cc3)cc(OC)cc2c1`, the IC50 is under 100 nM.
Regarding `C[C@@H](NC(=O)c1ccc2c(Oc3ccc(C(F)(F)F)cc3)cccc2c1)c1ccccn1`, the IC50 entry is “in the range around 550 nM”.
`C[C@H](NC(=O)c1cnc2c(Oc3ccc(C(F)(F)F)cc3)cccc2c1)c1ccccn1`: the IC50 was under 100 nM.
For the molecule `CS(=O)(=O)NC(=O)c1ccc2c(Oc3ccc(F)c(F)c3)cccc2c1`, the IC50 is under 100 nM.
In turn, `C[C@@H](NC(=O)c1ccc2c(Oc3ccc(C(F)(F)F)cc3)cccc2c1)C(N)=O` had an IC50 of under 100 nM.
Take `CNS(=O)(=O)c1ccc2c(Oc3ccc(C(F)(F)F)cc3)cccc2c1`: the IC50 was under 100 nM.
The molecule `C[C@H](CO)NC(=O)c1ccc2c(Oc3ccc(C(F)(F)F)cc3)cccc2c1` registered an IC50 of under 100 nM.
In turn, `CC(C)NC(=O)c1ccc2c(Oc3ccc(F)c(F)c3)cccc2c1` came in with an IC50 of under 100 nM.
For the molecule `C[C@@H](NC(=O)c1ccc2c(Oc3ccc(C(F)(F)F)cc3)cccc2c1)c1cccc(N)n1`, the half-maximal inhibitory concentration (IC50) was under 100 nM.
Consider `C[C@@H](NC(=O)c1ccc2c(Oc3ccc(C(F)(F)F)cc3)cccc2c1)C1COC1`, for which the IC50 was under 100 nM.
The molecule `CC(C)NC(=O)c1ccc2c(Oc3ccc(Cl)cc3)cccc2c1` came in with an IC50 of under 100 nM.
As for `O=C(NC(CO)c1ccccn1)c1cnc2c(Oc3ccc(C(F)(F)F)cc3)cccc2c1` (stereo not given), the half-maximal inhibitory concentration (IC50) was under 100 nM.
For `C[C@@H](NC(=O)c1ccc2c(Oc3ccc(C(F)(F)F)cc3)cccc2c1)c1cc(N(C)C)ccn1` the value was “in the range around 2000 nM”; for `C[C@@H](NC(=O)c1ccc2c(Oc3ccc(C(F)(F)F)cc3)cccc2c1)C1CCC1`, under 100 nM.
On to `CNCCNC(=O)c1ccc2c(Oc3ccc(C(F)(F)F)cc3)cccc2c1`, for which the IC50 entry was “in the range around 550 nM”.
For `C[C@H](NC(=O)c1ccc2c(Oc3ccc(C(F)(F)F)cc3)cccc2c1)C(N)=O` the value was under 100 nM; for `C#CCCNC(=O)c1ccc2c(Oc3ccc(C(F)(F)F)cc3)cccc2c1`, under 100 nM; for `CC(C)NC(=O)c1ccc2c(Oc3ccc(C(F)(F)F)cc3)cccc2n1`, under 100 nM.
With `CC(C)NC(=O)c1ccc2c(Oc3ccc(C(F)(F)F)cc3)ccnc2c1`, the IC50 result was “in the range around 550 nM”.
As for `C[C@H](NC(=O)c1ccc2c(Oc3ccc(C(F)(F)F)cc3)cccc2c1)c1cc(N)ccn1`, the IC50 result is “in the range around 550 nM”.
Regarding `CC(C)NC(=O)c1cnc2c(Oc3ccc(C(F)(F)F)cc3)cccc2c1`, the IC50 is under 100 nM.
`CC(C)NC(=O)c1ccc2c(Oc3ccc(C(F)(F)F)cc3)nccc2c1` had an IC50 of under 100 nM.
For `COC[C@H](C)NC(=O)c1cnc2c(Oc3ccc(C(F)(F)F)cc3)cccc2c1` the value was under 100 nM.
For `CN(C#N)CCNC(=O)c1ccc2c(Oc3ccc(C(F)(F)F)cc3)cccc2c1` the value was under 100 nM; for `O=C(NC(CO)Cc1ccccn1)c1ccc2c(Oc3ccc(C(F)(F)F)cc3)cccc2c1` (stereo not given), under 100 nM; for `CNS(=O)(=O)c1ccc2c(Oc3ccc(Cl)c(Cl)c3)cccc2c1`, under 100 nM.
For `CC(C)NC(=O)c1cc2cccc(Oc3ccc(C(F)(F)F)cc3)c2s1` the value was under 100 nM.
For the molecule `C[C@H](NC(=O)c1ccc2c(Oc3ccc(C(F)(F)F)cc3)cccc2c1)c1nnnn1C`, the IC50 result is “in the range around 550 nM”.
As to `N#CCCNC(=O)c1ccc2c(Oc3ccc(C(F)(F)F)cc3)cccc2c1`, the IC50 is under 100 nM.
In the case of `C[C@H](NC(=O)c1ccc2c(Oc3ccc(C(F)(F)F)cc3)cccc2c1)c1nnn(C)n1`, the IC50 is under 100 nM.
Molecule `O=C(NC1(c2ccccn2)CC1)c1ccc2c(Oc3ccc(C(F)(F)F)cc3)cccc2c1` registered an IC50 of under 100 nM.
Turning to `C[C@H](NC(=O)c1ccc2c(Oc3ccc(C(F)(F)F)cc3)cccc2c1)c1nccn1C`, the half-inhibitory concentration (IC50) entry was “in the range around 550 nM”.
With `C[C@H](NC(=O)c1ccc2c(Oc3ccc(C(F)(F)F)cc3)cccc2c1)c1cc(N(C)C)ccn1`, the IC50 result was “in the range around 550 nM”.
`C[C@@H](NC(=O)c1ccc2c(Oc3ccc(C(F)(F)F)cc3)cccc2c1)c1ncc[nH]1`: the IC50 is under 100 nM.
`COC[C@@H](C)NC(=O)c1cnc2c(Oc3ccc(C(F)(F)F)cc3)cccc2c1`: the IC50 entry is “in the range around 550 nM”.
`O=C(NC1(c2ccccc2)COC1)c1ccc2c(Oc3ccc(C(F)(F)F)cc3)cccc2c1` had an IC50 of under 100 nM.
Take `C[C@@H](NC(=O)c1ccc2c(Oc3ccc(C(F)(F)F)cc3)cccc2c1)C1CC1`: the IC50 is under 100 nM.
As for `COc1cc(Oc2ccc(C(F)(F)F)cc2)c2ncc(C(=O)N[C@@H](C)c3ccccn3)cc2c1`, the IC50 is under 100 nM.
`C[C@@H](NC(=O)c1cnc2c(Oc3ccc(C(F)(F)F)cc3)cccc2c1)c1ccccn1`: the IC50 entry was “in the range around 550 nM”.
On to `C[C@@H](NC(=O)c1ccc2c(Oc3ccc(C(F)(F)F)cc3)cccc2c1)c1nnnn1C`, for which the IC50 result was “in the range around 550 nM”.
The value for `C[C@H](NC(=O)c1ccc2c(Oc3ccc(C(F)(F)F)cc3)cccc2c1)C1CC1` was under 100 nM.
As to `C[C@H](NC(=O)c1ccc2c(Oc3ccc(C(F)(F)F)cc3)cccc2c1)c1cccnc1N`, the IC50 was under 100 nM.
The value for `C[C@@H](NC(=O)c1ccc2c(Oc3ccc(C(F)(F)F)cc3)cccc2c1)c1nccn1C` was “in the range around 550 nM”; that for `C[C@H](CO)NC(=O)c1cnc2c(Oc3ccc(C(F)(F)F)cc3)cccc2c1` was under 100 nM.

As a reminder, the IC50 is the concentration needed to halve the response being measured. Read a low IC50 as inhibition by little substance.
